In US8207156B2, “Substituted pyrazoline compounds, their preparation and use as medicaments” (Laboratorios Del Dr. Esteve, S.A., priority 2005, dated 2012):
Structures can show the parent of a compound that is named as a salt.

Assays:
[1] = target: recombinant human cannabinoid 1 receptor (CB1) (Homo sapiens, UniProt P21554); experiment: In vitro determination of antagonism to CB1-receptor ([35S]GTPγS binding assay, CHO cell membranes); format: biochemical; details: compound at 1 μM against agonist WIN 55,212-2 (3 nM to 3 μM), effect of Rimonabant (1 μM) defined as 100%
Chain of recombinant human cannabinoid 1 receptor (CB1) (P21554 whole entry): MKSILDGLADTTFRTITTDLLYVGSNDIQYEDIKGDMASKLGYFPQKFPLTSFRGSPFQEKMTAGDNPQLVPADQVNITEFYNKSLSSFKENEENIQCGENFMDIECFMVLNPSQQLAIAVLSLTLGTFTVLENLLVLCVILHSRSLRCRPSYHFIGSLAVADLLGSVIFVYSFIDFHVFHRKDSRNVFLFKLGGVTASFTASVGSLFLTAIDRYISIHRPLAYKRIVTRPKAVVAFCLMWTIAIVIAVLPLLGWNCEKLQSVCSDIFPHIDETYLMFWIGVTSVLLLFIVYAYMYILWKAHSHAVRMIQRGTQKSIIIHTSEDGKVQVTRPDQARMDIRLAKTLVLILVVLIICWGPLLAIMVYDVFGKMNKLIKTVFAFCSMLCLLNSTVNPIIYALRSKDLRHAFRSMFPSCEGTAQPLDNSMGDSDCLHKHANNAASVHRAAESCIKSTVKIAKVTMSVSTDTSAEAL
Experimental: Chinese hamster ovary (CHO) cells stably expressing recombinant human cannabinoid 1 receptor (CB1) were cultured in nutrient mixture Ham's F 12 supplemented with 10% heat-inactivated fetal bovine serum, 2 mM L-glutamine, 50 U/ml penicillin, 50 U/ml streptomycin and 0.5 mg/ml geneticin. In order to obtain cells, culture flasks were washed twice with phosphate buffered saline and scraped. Then, cells were collected by centrifugation (200×g, 10 min) and stored dry at −80° C. Cells were homogenized in ice-cold 20 mM HEPES, 10 mM EDTA (pH 7.5) and centrifuged at 40,000×g for 15 min at 4° C. The membrane pellet was resuspended in 20 mM HEPES, 0.1 mM EDTA (pH 7.5) and centrifuged for 15 min at 4° C. The final membrane pellet was resuspended in 20 mM HEPES, 0.1 mM EDTA (pH 7.5), and divided in aliquots and stored at −80° C. until use.
The reaction was performed in 96-well plates. Membranes (15 μg protein/well) were incubated for 60 min at 30° C. in buffer (50 mM HEPES, 100 mM KCl, 5 mM MgCl2,1 mM EDTA, 0.1% wt/vol bovine serum albumin, 5 μM GDP, saponin (10 μg/ml), 0.5 nM [^35S]GTPγS, pH 7.4) with compound at a final concentration of 1 μM in either the absence or presence of agonist WIN 55, 212-2 between 3 nM and 3 μM. The incubation was terminated by rapid filtration through Millipore Multiscreen glass fiber FB, and rinsed two-times with ice-cold assay buffer. Filter plates were dried and 30 μl of scintillation liquid was added. Radioactivity was determined using a Wallac Microbeta Trilux. Each experiment was performed at least in duplicate. A WIN 55, 212-2 dose-response experiment either alone or in the presence of Rimonabant (1 μM) was systematically performed.
The average of basal [^35S]GTPγS binding was subtracted from all binding data. In order to compare the antagonism results from one screening campaign to another one, the difference between the maximal agonist effect of WIN 55, 212-2 alone, and the maximal antagonism effect due to WIN 55, 212-2 plus Rimonabant (1 μM) was defined as 100%.

CB1 receptor [2] = target: T1, CB1 receptor (UniProt P20272); experiment: In-vitro determination of affinity to CB1/CB2-receptors (radioligand [3H]-CP55940 binding); details: for Inhibition [%], 10^−7 M: compound at 10^−7 M; for Inhibition [%], 10^−8 M: compound at 10^−8 M
T1 construct: other: compound at 10^−7 M; radioligand [3H]-CP55940; other: compound at 10^−8 M
Experimental: (§1) The in-vitro determination of the affinity of the inventive substituted pyrazoline compounds to CB1/CB2-Rezeptors is carried out as described in the publication of Ruth A. Ross, Heather C. Brockie et al., “Agonist-inverse agonist characterization at CB1 and CB2 cannabinoid receptors of L-759633, L759656 and AM630”, British Journal of Pharmacology, 126, 665-672, (1999), whereby the transfected human CB1 and CB2 receptors of Receptor Biology, Inc. are used. The radioligand used for both receptors is [^3H]-CP55940. The respective parts of the description is hereby incorporated by reference and forms part of the present disclosure.
(§2) Binding affinity to CB1 receptor was evaluated according to a modification of the method described by Govaerts et al., Eur J Pharmac Sci 23, 233-243 (2004). The respective parts of the description is hereby incorporated by reference and forms part of the present disclosure.
(§3) Briefly, cerebellum from male wistar rats (250-300 g) were carefully dissected on ice and homogenates were prepared with Potter-Helveheim in a cold 50 mM Tris-HCl solution containing 5 mM MgCl2, 1 mM EDTA and 0.25 M sucrose, pH 7.4. The suspension was centrifuged at 1,000×g for 5 minutes. The supernatants were collected and centrifuged 50,000×g for 15 minutes. The resulting pellets were then resuspended in Tris-HCl buffer without sucrose, homogenized and incubated for 15 min at 37° C. in an orbital shaker bath and centrifuged again at 50,000×g for 15 min. Pellets were weighted, resuspended in Tris-HCl buffer without sucrose, homogenized with Ultraturrax at 13,500 rpm for 3×5 seconds and alicuoted in 0.9 ml volumes in Eppendorf tubes. Alicuotes were centrifuged at 20,800×g for 5 minutes, supernatants discarded and pellets were frozen at −80° C. until use. Total protein concentration was determined using the Bio-Rad Lowry method based kit. Competitive binding experiments were performed in presence of 1 nM [^3H]-CP 55,940 in siliconized glass tubes containing 100 μg protein/tube resuspended in 1 ml final volume of 50 mM Tris-HCl, 5 mM MgCl2, 1 mM EDTA, 0.5% (w/v) bovine serum albumin, pH 7.4. Compounds were present at various concentrations and the non specific binding was determined in the presence of 10 μM HU-210. After 1 hour incubation at 30° C., the suspension was rapidly filtered through 0.5% PEI pre-treated GF/B fiber filters on a 96-well harvester and washed 3 times with 3 ml ice-cold binding buffer without bovine serum albumin. Radioactivity on filters was measured with Wallac Winspectral 1414 counter by liquid scintillation in 6 ml Ecoscint H (National Diagnostics, U.K.). Assays were made in triplicates.
(§4) Binding data were analyzed by non-linear regression with the software GraphPad Prism Version 3.03.

CB1 receptor [3] = target: T2, CB1 receptor; experiment: as above; details: binding data per pharmacological methods part I, table does not say whether human transfected receptor or rat cerebellum
T2 construct: IC50 [nM]; radioligand [3H]-CP55940
Experimental: as §1, §2, §3, §4

| SMILES | Antagonism [%] [1] [%] | Inhibition [%], 10^−7 M (CB1 receptor [2]) [%] | Inhibition [%], 10^−8 M (CB1 receptor [2]) [%] | also measured |
| --- | --- | --- | --- | --- |
| O=C(NN1CCOCC1)C1=NN(c2ccc(Cl)cc2Cl)C(c2ccc(Cl)cc2)C1 (centres unmarked) [Example 8, 5-(4-Chloro-phenyl)-1-(2,4-dichloro-phenyl)-4,5-dihydro-1H-pyrazole-3-carboxylic acid morpholin-4-ylamide] | 54 | 21.9 | −8.2 |  |
| O=C(NN1CCCC1)C1=NN(c2ccc(Cl)cc2Cl)C(c2ccc(Cl)cc2)C1 (centres unmarked) [Example 11, 5-(4-Chloro-phenyl)-1-(2,4-dichloro-phenyl)-4,5-dihydro-1H-pyrazole-3-carboxylic acid pyrrolidin-1-ylamide] |  |  |  | IC50 (CB1 receptor [3]): 630 nM |
| CCCCN(NC(=O)C1=NN(c2ccc(Cl)cc2Cl)C(c2ccc(Cl)cc2)C1)c1ccccc1 (centres unmarked) [Example 29, 5-(4-Chloro-phenyl)-1-(2,4-dichloro-phenyl)-4,5-dihydro-1H-pyrazole-3-carboxylic acid N′-butyl-N′-phenyl-hydrazide] |  |  |  | IC50 (CB1 receptor [3]): > 1000 nM |
| CC(C)(C)C1CCC(NC(=O)C2=NN(c3ccc(Cl)cc3Cl)C(c3ccc(Cl)cc3)C2)CC1 (centres unmarked) [Example 31, 5-(4-Chloro-phenyl)-1-(2,4-dichloro-phenyl)-4,5-dihydro-1H-pyrazole-3-carboxylic acid (4-tert-butyl-cyclohexyl)-amide] |  |  |  | IC50 (CB1 receptor [3]): > 1000 nM |
| O=C(NC1CCCCC1)C1=NN(c2ccc(Cl)cc2Cl)C(c2ccc(Cl)cc2)C1 (centres unmarked) [Example 41, 5-(4-Chloro-phenyl)-1-(2,4-dichloro-phenyl)-4,5-dihydro-1H-pyrazole-3-carboxylic acid cyclohexylamide] | 69 | 3.4 | −5.2 |  |
| O=C(C1=NN(c2ccc(Cl)cc2Cl)C(c2ccc(Cl)cc2)C1)N1CCOCC1 (centres unmarked) [Example 54, [5-(4-Chloro-phenyl)-1-(2,4-dichloro-phenyl)-4,5-dihydro-1H-pyrazol-3-yl]-morpholin-4-yl-methanone] | 46 |  |  |  |
| CC(C)N(C(=O)C1=NN(c2ccc(Cl)cc2Cl)C(c2ccc(Cl)cc2)C1)C1CCCCC1 (centres unmarked) [Example 55, 5-(4-Chloro-phenyl)-1-(2,4-dichloro-phenyl)-4,5-dihydro-1H-pyrazole-3-carboxylic acid cyclohexyl-isopropyl-amide] | 30 |  |  |  |
| O=C(NCC1CCCCCC1)C1=NN(c2ccc(Cl)cc2Cl)C(c2ccc(Cl)cc2)C1 (centres unmarked) [Example 191, 5-(4-Chloro-phenyl)-1-(2,4-dichloro-phenyl)-4,5-dihydro-1H-pyrazole-3-carboxylic acid cycloheptylmethyl-amide] | 82 | 67.4 | 30.2 |  |
| O=C(NN1CC2CCCC2C1)C1=NN(c2ccc(Cl)cc2Cl)C(c2ccc(Cl)cc2)C1 (centres unmarked) [Example 193, 5-(4-Chloro-phenyl)-1-(2,4-dichloro-phenyl)-4,5-dihydro-1H-pyrazole-3-carboxylic acid (hexahydro-cyclopenta[c]pyrrol-2-yl)-amide hydrochloride] |  |  |  | Antagonism [%] ([1]; hydrochloride): 115% |

Further lines, with some results ahead:

| Antagonism [%] [1] [%] | Inhibition [%], 10^−7 M (CB1 receptor [2]) [%] | Inhibition [%], 10^−8 M (CB1 receptor [2]) [%] | SMILES | also measured |
| --- | --- | --- | --- | --- |
| 44 |  |  | O=C(C1=NN(c2ccc(Cl)cc2Cl)C(c2ccc(Cl)cc2)C1)N1CCc2sccc2C1 (centres unmarked) [Example 56, [5-(4-Chloro-phenyl)-1-(2,4-dichloro-phenyl)-4,5-dihydro-1H-pyrazol-3-yl]-(6,7-dihydro-4H-thieno[3,2-c]pyridin-5-yl)-methanone] |  |
| 47 |  |  | CC1(C)[C@@H]2CC[C@@]1(C)[C@@H](NC(=O)C1=NN(c3ccc(Cl)cc3Cl)C(c3ccc(Cl)cc3)C1)C2 (some centres unmarked) [Example 58, 5-(4-Chloro-phenyl)-1-(2,4-dichloro-phenyl)-4,5-dihydro-1H-pyrazole-3-carboxylic acid (1,7,7-trimethyl-bicyclo[2.2.1]hept-2-yl)-amide] |  |
| 60 |  |  | CCC1CCC(C)N(C(=O)C2=NN(c3ccc(Cl)cc3Cl)C(c3ccc(Cl)cc3)C2)C1 (centres unmarked) [Example 59, [5-(4-Chloro-phenyl)-1-(2,4-dichloro-phenyl)-4,5-dihydro-1H-pyrazol-3-yl]-(5-ethyl-2-methyl-piperidin-1-yl)-methanone] |  |
| 75 |  |  | O=C(NN1CCCC1)C1=NN(c2ccc(Cl)cc2Cl)C(c2ccc(Br)cc2)C1 (centres unmarked) [Example 61, 5-(4-Bromo-phenyl)-1-(2,4-dichloro-phenyl)-4,5-dihydro-1H-pyrazole-3-carboxylic acid pyrrolidin-1-ylamide] |  |
| 67 |  |  | CC1CCCC(C)N1NC(=O)C1=NN(c2ccc(Cl)cc2Cl)C(c2ccc(Br)cc2)C1 (centres unmarked) [Example 62, 5-(4-Bromo-phenyl)-1-(2,4-dichloro-phenyl)-4,5-dihydro-1H-pyrazole-3-carboxylic acid (2,6-dimethyl-piperidin-1-yl)-amide] |  |
| 52 |  |  | O=C(NN1CCOCC1)C1=NN(c2ccc(Cl)cc2Cl)C(c2ccc(Br)cc2)C1 (centres unmarked) [Example 67, 5-(4-Bromo-phenyl)-1-(2,4-dichloro-phenyl)-4,5-dihydro-1H-pyrazole-3-carboxylic acid morpholin-4-ylamide] |  |
| 23 | −4.3 | 1.9 | COC(=O)C1=NN(c2ccc(Cl)cc2Cl)C(c2ccc(Cl)cc2)C1 (centres unmarked) [Example 115, 5-(4-Chloro-phenyl)-1-(2,4-dichloro-phenyl)-4,5-dihydro-1H-pyrazole-3-carboxylic acid methyl ester] |  |
| 30 | 7.1 | −4.1 | CCOC(=O)C1=NN(c2ccc(Cl)cc2Cl)C(c2ccc(Cl)cc2)C1 (centres unmarked) [Example 120, 5-(4-Chloro-phenyl)-1-(2,4-dichloro-phenyl)-4,5-dihydro-1H-pyrazole-3-carboxylic acid ethyl ester] |  |
| 30 |  |  | O=C(O)C1=NN(c2ccc(Cl)cc2Cl)C(c2ccc(F)cc2)C1 (centres unmarked) [Example 126, 1-(2,4-Dichloro-phenyl)-5-(4-fluoro-phenyl)-4,5-dihydro-1H-pyrazole-3-carboxylic acid] |  |
| 18 |  |  | O=C(O)C1=NN(c2ccc(Cl)cc2Cl)C(c2ccc(Br)cc2)C1 (centres unmarked) [Example 128, 5-(4-Bromo-phenyl)-1-(2,4-dichloro-phenyl)-4,5-dihydro-1H-pyrazole-3-carboxylic acid] |  |
| 82 | 41.7 | 22.9 | Cl.O=C(NN1CCCC1)C1=NN(c2ccc(Cl)cc2Cl)C(c2ccc(Cl)cc2)C1 (centres unmarked) [Example 194, 5-(4-Chloro-phenyl)-1-(2,4-dichloro-phenyl)-4,5-dihydro-1H-pyrazole-3-carboxylic acid pyrrolidin-1-ylamide hydrochloride] |  |
